Test results: patent publication EP4691482A1, “LONG-ACTING CALCITONIN ANALOG” (Chengdu Aoda Biotechnology Co., Ltd., priority 2023, dated 2024)

Molecular target: T1, calcitonin receptors (CTR) (Homo sapiens, UniProt P30988)
T1 construct: expressed in transfected cells; host or cells: cAMP Hunter HEK293-CT-R Gs cell line (HEK293, stably transfected)
T1 sequence (P30988 25-474): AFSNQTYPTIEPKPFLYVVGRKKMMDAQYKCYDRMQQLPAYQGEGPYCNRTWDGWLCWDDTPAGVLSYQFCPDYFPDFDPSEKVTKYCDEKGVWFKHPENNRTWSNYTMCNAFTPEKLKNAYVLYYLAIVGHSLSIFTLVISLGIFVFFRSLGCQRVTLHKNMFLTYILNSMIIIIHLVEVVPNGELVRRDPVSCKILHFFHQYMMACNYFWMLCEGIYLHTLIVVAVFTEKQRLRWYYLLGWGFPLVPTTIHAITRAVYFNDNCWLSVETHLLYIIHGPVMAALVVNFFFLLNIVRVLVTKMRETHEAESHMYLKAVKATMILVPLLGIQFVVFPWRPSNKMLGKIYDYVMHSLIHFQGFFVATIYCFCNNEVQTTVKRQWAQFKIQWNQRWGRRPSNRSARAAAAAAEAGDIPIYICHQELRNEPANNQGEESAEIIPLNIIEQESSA
Test: cAMP determination (HTRF, cAMP Dynamic 2 Kit) in cAMP Hunter HEK293-CT-R Gs cell line
Assay type: cell-based
Details: for Relative Activity%: relative to Salmon Calcitonin = 100.0, HEK293 CT-R cAMP; for EC50: HEK293 cell line stably expressing CT-R, intracellular cAMP, HTRF
Source text: Upon activation by a ligand, Gas-coupled GPCRs can upregulate intracellular cAMP level, and cAMP, as a second messenger, can mediate a series of cellular responses. The cAMP Hunter HEK293-CT-R Gs cell line, which overexpresses Gas-coupled calcitonin receptors (CTR), was used. The binding of calcitonin (or an analog thereof) to the overexpressed CTR upregulates intracellular cAMP level. The amount of intracellular cAMP produced after activation by the calcitonin (or an analog thereof) was detected using a cAMP Dynamic 2 Kit to evaluate the biological activity of the calcitonin (or an analog thereof). HEK293 cell line stably expressing CT-R was used. Stably transfected cells were stimulated with various concentrations of agonists. The time-resolved fluorescence resonance energy signal from the cells after stimulation with different doses was measured using HTRF technology, from which the biological activity of the agonist was subsequently calculated.

Row | Structure (SMILES) | Relative Activity% [%] | EC50 [pM]
1 | CC(C)C[C@H](NC(=O)[C@H](CCCCN)NC(=O)CNC(=O)[C@H](CC(C)C)NC(=O)[C@@H](NC(=O)[C@@H]1CSSC[C@H](N)C(=O)N[C@@H](CO)C(=O)N[C@@H](CC(N)=O)C(=O)N[C@@H](CC(C)C)C(=O)N[C@@H](CO)C(=O)N[C@@H]([C@@H](C)O)C(=O)N1)C(C)C)C(=O)N[C@@H](CO)C(=O)N[C@@H](CCC(N)=O)C(=O)N[C@@H](CCC(=O)O)C(=O)N[C@@H](CC(C)C)C(=O)N[C@@H](Cc1c[nH]cn1)C(=O)N[C@@H](CCCCNC(=O)COCCOCCNC(=O)CC[C@H](NC(=O)CCCCCCCCCCCCCCCCCCC(=O)O)C(=O)O)C(=O)N[C@@H](CC(C)C)C(=O)N[C@@H](CCC(N)=O)C(=O)N[C@H](C(=O)N[C@@H](Cc1ccc(O)cc1)C(=O)N1CCC[C@H]1C(=O)N[C@@H](CCCNC(=N)N)C(=O)N[C@H](C(=O)N[C@@H](CC(N)=O)C(=O)N[C@H](C(=O)NCC(=O)N[C@@H](CO)C(=O)NCC(=O)N[C@H](C(=O)N1CCC[C@H]1C(N)=O)[C@@H](C)O)[C@@H](C)O)[C@@H](C)O)[C@@H](C)O [Compound 2, Cys-Ser-Asn-Leu-Ser-Thr-Cys-Val-Leu-Gly-Lys-Leu-Ser-Gln-Glu-Leu-His-Lys(PEG2CH2CO-γGlu-eicosanedioic acid)-Leu-Gln-Thr-Tyr-Pro-Arg-Thr-Asn-Thr-Gly-Ser-Gly-Thr-Pro-NH2] | 231.7 | –
2 | CC(C)C[C@H](NC(=O)[C@H](CCCCN)NC(=O)CNC(=O)[C@H](CC(C)C)NC(=O)[C@@H](NC(=O)[C@@H]1CSSC[C@H](N)C(=O)N[C@@H](CO)C(=O)N[C@@H](CC(N)=O)C(=O)N[C@@H](CC(C)C)C(=O)N[C@@H](CO)C(=O)N[C@@H]([C@@H](C)O)C(=O)N1)C(C)C)C(=O)N[C@@H](CO)C(=O)N[C@@H](CCC(N)=O)C(=O)N[C@@H](CCC(=O)O)C(=O)N[C@@H](CC(C)C)C(=O)N[C@@H](Cc1c[nH]cn1)C(=O)N[C@@H](CCCCNC(=O)CNC(=O)CNC(=O)[C@H](CO)NC(=O)CNC(=O)[C@H](CO)NC(=O)CNC(=O)[C@H](CO)NC(=O)CNC(=O)CC[C@H](NC(=O)CCCCCCCCCCCCCCCCCCC(=O)O)C(=O)O)C(=O)N[C@@H](CC(C)C)C(=O)N[C@@H](CCC(N)=O)C(=O)N[C@H](C(=O)N[C@@H](Cc1ccc(O)cc1)C(=O)N1CCC[C@H]1C(=O)N[C@@H](CCCNC(=N)N)C(=O)N[C@H](C(=O)N[C@@H](CC(N)=O)C(=O)N[C@H](C(=O)NCC(=O)N[C@@H](CO)C(=O)NCC(=O)N[C@H](C(=O)N1CCC[C@H]1C(N)=O)[C@@H](C)O)[C@@H](C)O)[C@@H](C)O)[C@@H](C)O [Compound 9] | – | 4.1
3 | CC(C)C[C@H](NC(=O)[C@H](CCCCN)NC(=O)CNC(=O)[C@H](CC(C)C)NC(=O)[C@@H](NC(=O)[C@@H]1CSSC[C@H](N)C(=O)N[C@@H](CO)C(=O)N[C@@H](CC(N)=O)C(=O)N[C@@H](CC(C)C)C(=O)N[C@@H](CO)C(=O)N[C@@H]([C@@H](C)O)C(=O)N1)C(C)C)C(=O)N[C@@H](CO)C(=O)N[C@@H](CCC(N)=O)C(=O)N[C@@H](CCC(=O)O)C(=O)N[C@@H](CC(C)C)C(=O)N[C@@H](Cc1c[nH]cn1)C(=O)N[C@@H](CCCCNC(=O)CNC(=O)CNC(=O)[C@H](CO)NC(=O)CNC(=O)[C@H](CO)NC(=O)CNC(=O)CC[C@H](NC(=O)CCCCCCCCCCCCCCCCCCC(=O)O)C(=O)O)C(=O)N[C@@H](CC(C)C)C(=O)N[C@@H](CCC(N)=O)C(=O)N[C@H](C(=O)N[C@@H](Cc1ccc(O)cc1)C(=O)N1CCC[C@H]1C(=O)N[C@@H](CCCNC(=N)N)C(=O)N[C@H](C(=O)N[C@@H](CC(N)=O)C(=O)N[C@H](C(=O)NCC(=O)N[C@@H](CO)C(=O)NCC(=O)N[C@H](C(=O)N1CCC[C@H]1C(N)=O)[C@@H](C)O)[C@@H](C)O)[C@@H](C)O)[C@@H](C)O [Compound 8] | – | 3.7
4 | CC(C)C[C@H](NC(=O)[C@H](CCCCN)NC(=O)CNC(=O)[C@H](CC(C)C)NC(=O)[C@@H](NC(=O)[C@@H]1CSSC[C@H](N)C(=O)N[C@@H](CO)C(=O)N[C@@H](CC(N)=O)C(=O)N[C@@H](CC(C)C)C(=O)N[C@@H](CO)C(=O)N[C@@H]([C@@H](C)O)C(=O)N1)C(C)C)C(=O)N[C@@H](CO)C(=O)N[C@@H](CCC(N)=O)C(=O)N[C@@H](CCC(=O)O)C(=O)N[C@@H](CC(C)C)C(=O)N[C@@H](Cc1c[nH]cn1)C(=O)N[C@@H](CCCCNC(=O)COCCOCCOCCNC(=O)CC[C@H](NC(=O)CCCCCCCCCCCCCCCCCCC(=O)O)C(=O)O)C(=O)N[C@@H](CC(C)C)C(=O)N[C@@H](CCC(N)=O)C(=O)N[C@H](C(=O)N[C@@H](Cc1ccc(O)cc1)C(=O)N1CCC[C@H]1C(=O)N[C@@H](CCCNC(=N)N)C(=O)N[C@H](C(=O)N[C@@H](CC(N)=O)C(=O)N[C@H](C(=O)NCC(=O)N[C@@H](CO)C(=O)NCC(=O)N[C@H](C(=O)N1CCC[C@H]1C(N)=O)[C@@H](C)O)[C@@H](C)O)[C@@H](C)O)[C@@H](C)O [Compound 3, Cys-Ser-Asn-Leu-Ser-Thr-Cys-Val-Leu-Gly-Lys-Leu-Ser-Gln-Glu-Leu-His-Lys(PEG3CH2CO-yGlu-eicosanedioic acid)-Leu-Gln-Thr-Tyr-Pro-Arg-Thr-Asn-Thr-Gly-Ser-Gly-Thr-Pro-NH2] | 256.8 | –

Second part, the compound after the results:

Row | Relative Activity% [%] | EC50 [pM] | Structure (SMILES)
5 | – | 2.9 | CC(C)C[C@H](NC(=O)[C@H](CCCCN)NC(=O)CNC(=O)[C@H](CC(C)C)NC(=O)[C@@H](NC(=O)[C@@H]1CSSC[C@H](N)C(=O)N[C@@H](CO)C(=O)N[C@@H](CC(N)=O)C(=O)N[C@@H](CC(C)C)C(=O)N[C@@H](CO)C(=O)N[C@@H]([C@@H](C)O)C(=O)N1)C(C)C)C(=O)N[C@@H](CO)C(=O)N[C@@H](CCC(N)=O)C(=O)N[C@@H](CCC(=O)O)C(=O)N[C@@H](CC(C)C)C(=O)N[C@@H](Cc1c[nH]cn1)C(=O)N[C@@H](CCCCNC(=O)COCCOCCNC(=O)COCCOCCNC(=O)CC[C@H](NC(=O)CCCCCCCCCCCCCCCCCCC(=O)O)C(=O)O)C(=O)N[C@@H](CC(C)C)C(=O)N[C@@H](CCC(N)=O)C(=O)N[C@H](C(=O)N[C@@H](Cc1ccc(O)cc1)C(=O)N1CCC[C@H]1C(=O)N[C@@H](CCCNC(=N)N)C(=O)N[C@H](C(=O)N[C@@H](CC(N)=O)C(=O)N[C@H](C(=O)NCC(=O)N[C@@H](CO)C(=O)NCC(=O)N[C@H](C(=O)N1CCC[C@H]1C(N)=O)[C@@H](C)O)[C@@H](C)O)[C@@H](C)O)[C@@H](C)O [Compound 16, Cys-Ser-Asn-Leu-Ser-Thr-Cys-Val-Leu-Gly-Lys-Leu-Ser-Gln-Glu-Leu-His-Lys(AEEA-AEEA-γGlu-eicosanedioic acid)-Leu-Gln-Thr-Tyr-Pro-Arg-Thr-Asn-Thr-Gly-Ser-Gly-Thr-Pro-NH2]
6 | – | 6.5 | CC(C)C[C@H](NC(=O)[C@H](CCCCN)NC(=O)CNC(=O)[C@H](CC(C)C)NC(=O)[C@@H](NC(=O)[C@@H]1CSSC[C@H](N)C(=O)N[C@@H](CO)C(=O)N[C@@H](CC(N)=O)C(=O)N[C@@H](CC(C)C)C(=O)N[C@@H](CO)C(=O)N[C@@H]([C@@H](C)O)C(=O)N1)C(C)C)C(=O)N[C@@H](CO)C(=O)N[C@@H](CCC(N)=O)C(=O)N[C@@H](CCC(=O)O)C(=O)N[C@@H](CC(C)C)C(=O)N[C@@H](Cc1c[nH]cn1)C(=O)N[C@@H](CCCCNC(=O)CNC(=O)CNC(=O)CNC(=O)CNC(=O)CNC(=O)CNC(=O)CC[C@H](NC(=O)CCCCCCCCCCCCCCCCCCC(=O)O)C(=O)O)C(=O)N[C@@H](CC(C)C)C(=O)N[C@@H](CCC(N)=O)C(=O)N[C@H](C(=O)N[C@@H](Cc1ccc(O)cc1)C(=O)N1CCC[C@H]1C(=O)N[C@@H](CCCNC(=N)N)C(=O)N[C@H](C(=O)N[C@@H](CC(N)=O)C(=O)N[C@H](C(=O)NCC(=O)N[C@@H](CO)C(=O)NCC(=O)N[C@H](C(=O)N1CCC[C@H]1C(N)=O)[C@@H](C)O)[C@@H](C)O)[C@@H](C)O)[C@@H](C)O [Compound 15]
7 | – | 3.1 | CC(C)C[C@H](NC(=O)[C@H](CCCCN)NC(=O)CNC(=O)[C@H](CC(C)C)NC(=O)[C@@H](NC(=O)[C@@H]1CSSC[C@H](N)C(=O)N[C@@H](CO)C(=O)N[C@@H](CC(N)=O)C(=O)N[C@@H](CC(C)C)C(=O)N[C@@H](CO)C(=O)N[C@@H]([C@@H](C)O)C(=O)N1)C(C)C)C(=O)N[C@@H](CO)C(=O)N[C@@H](CCC(N)=O)C(=O)N[C@@H](CCC(=O)O)C(=O)N[C@@H](CC(C)C)C(=O)N[C@@H](Cc1c[nH]cn1)C(=O)N[C@@H](CCCCNC(=O)CNC(=O)CNC(=O)CNC(=O)CNC(=O)CNC(=O)CC[C@H](NC(=O)CCCCCCCCCCCCCCCCCCC(=O)O)C(=O)O)C(=O)N[C@@H](CC(C)C)C(=O)N[C@@H](CCC(N)=O)C(=O)N[C@H](C(=O)N[C@@H](Cc1ccc(O)cc1)C(=O)N1CCC[C@H]1C(=O)N[C@@H](CCCNC(=N)N)C(=O)N[C@H](C(=O)N[C@@H](CC(N)=O)C(=O)N[C@H](C(=O)NCC(=O)N[C@@H](CO)C(=O)NCC(=O)N[C@H](C(=O)N1CCC[C@H]1C(N)=O)[C@@H](C)O)[C@@H](C)O)[C@@H](C)O)[C@@H](C)O [Compound 14]
